How the values were obtained:
Experiment in all cases: relative viability (nuclei count vs DMSO), 5 days (fraction); higher = more cells survive
[1] = compound: C1CC(C1)(C(=O)O)C(=O)O.[NH2-].[NH2-].[Pt+2] [Carboplatin] + CC1(C)CCC(c2ccc(Cl)cc2)=C(CN2CCN(c3ccc(C(=O)NS(=O)(=O)c4ccc(N[C@H](CCN5CCOCC5)CSc5ccccc5)c(S(=O)(=O)C(F)(F)F)c4)cc3)CC2)C1 [Navitoclax] (partner 0.5 µM)
Procedure, shortened: (§1)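 Relative viability was taken as the ratio of nuclei in treated wells to nuclei in vehicle wells. Lung cancer cell lines in 1536-well plates received compounds by pin tool one day after seeding, either one drug alone or a fixed anchor-drug dose plus five library-drug doses (not always all listed) in √10 steps. Nuclei were counted on 4× images after 5 days of treatment, and values are medians of duplicate plates.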

[2] = compound: NS(=O)(=O)OC[C@@H]1C[C@@H](n2ccc3c(N[C@H]4CCc5ccccc54)ncnc32)C[C@@H]1O [MLN4924] + C[C@]1(O)C[C@@H](c2nc(-c3ccc4ccc(-c5ccccc5)nc4c3)c3c(N)nccn32)C1 [Linsitinib] (partner 1 µM)
Procedure, shortened: as §1

[3] = compound: NS(=O)(=O)OC[C@@H]1C[C@@H](n2ccc3c(N[C@H]4CCc5ccccc54)ncnc32)C[C@@H]1O [MLN4924] + CC(=O)Nc1cccc(-n2c(=O)n(C3CC3)c(=O)c3c(Nc4ccc(I)cc4F)n(C)c(=O)c(C)c32)c1 [Trametinib] (partner 0.02 µM)
Procedure, shortened: as §1

[4] = compound: CC[C@H](C)N1C=C(C2=C(C=C(C=C21)C3=CN=C(C=C3)N4CCNCC4)C(=O)NCC5=C(C=C(NC5=O)C)C)C [GSK126] + COc1cccc2cc(-c3nc([C@H]4CC[C@H](C(=O)O)CC4)n4ncnc(N)c34)[nH]c12 [OSI-027] (partner 0.5 µM)
Procedure, shortened: as §1

Row | Cell Line | relative viability ([1]; first compound 0.08 µM) | relative viability ([1]; first compound 0.253 µM) | relative viability ([1]; first compound 0.8 µM) | relative viability ([1]; first compound 2.53 µM) | relative viability ([1]; first compound 8 µM) | relative viability ([2]; first compound 0.04 µM) | relative viability ([2]; first compound 0.1265 µM) | relative viability ([2]; first compound 0.4 µM) | relative viability ([2]; first compound 1.265 µM) | relative viability ([2]; first compound 4 µM) | relative viability ([3]; first compound 0.04 µM) | relative viability ([3]; first compound 0.1265 µM) | relative viability ([3]; first compound 0.4 µM) | relative viability ([3]; first compound 1.265 µM) | relative viability ([3]; first compound 4 µM) | relative viability ([4]; first compound 0.08 µM) | relative viability ([4]; first compound 0.253 µM) | relative viability ([4]; first compound 0.8 µM) | relative viability ([4]; first compound 2.53 µM) | relative viability ([4]; first compound 8 µM)
1 | SK-LU-1 | 0.824 | 0.774 | 0.946 | 0.872 | 0.387 | 0.747 | 0.443 | 0.19 | 0.181 | 0.216 | 0.556 | 0.652 | 0.347 | 0.269 | 0.234 | 0.435 | 0.37 | 0.401 | 0.416 | 0.387
2 | NCI-H1915 | 0.795 | 0.751 | 0.745 | 0.752 | 0.579 | 1.05 | 0.82 | 0.898 | 0.213 | 0.222 | 0.346 | 0.39 | 0.403 | 0.261 | 0.167 | 0.609 | 0.622 | 0.704 | 0.655 | 0.594
3 | SW 1573 | 0.91 | 1.03 | 0.922 | 1.1 | 0.543 | 0.928 | 0.766 | 0.389 | 0.0982 | 0.0789 | 0.586 | 0.441 | 0.14 | 0.0868 | 0.0758 | 0.959 | 0.656 | 0.665 | 0.625 | 0.846
4 | NCI-H460 | 1.13 | 1.11 | 1.03 | 0.986 | 0.358 | 0.838 | 0.733 | 0.113 | 0.0176 | 0.0132 | 0.3 | 0.205 | 0.332 | 0.0885 | 0.0366 | 0.843 | 0.615 | 0.622 | 0.718 | 0.656
5 | COR-L23 | 0.992 | 0.883 | 0.838 | 0.84 | 0.443 | 0.788 | 0.801 | 0.619 | 0.149 | 0.11 | 0.633 | 0.683 | 0.416 | 0.162 | 0.122 | 1 | 0.725 | 0.645 | 0.824 | 0.694
6 | NCI-H2009 | 1.12 | 1.08 | 1.09 | 1.04 | 0.733 | 0.816 | 0.36 | 0.247 | 0.143 | 0.0806 | 0.342 | 0.322 | 0.238 | 0.136 | 0.105 | 0.789 | 0.544 | 0.64 | 0.682 | 0.72
7 | PC-3 [JPC-3] | 0.85 | 0.78 | 0.83 | 0.717 | 0.725 | 0.975 | 0.923 | 0.679 | 0.383 | 0.386 | 0.625 | 0.727 | 0.495 | 0.538 | 0.374 | 0.839 | 0.847 | 0.76 | 0.822 | 0.855
